Where a SMILES comes first, the peptide text is derived from it. Where no end group is shown, it is not given here. [ ]: non-standard residue; d: D form. Dab = NCC[C@H](N)C(=O)O; Aib = CC(C)(N)C(=O)O
Tests used:
glucagon receptor = biological target: T1, glucagon receptor (Homo sapiens, UniProt P47871); assay: cAMP synthesis functional assay (firefly luciferase reporter in HEK293 cells), glucagon receptor; assay type: cell-based; settings: glucagon receptor
T1 construct: expressed in transfected cells; host or cells: HEK293

GLP-1 receptor = biological target: T2, GLP-1 receptor (Homo sapiens, UniProt P43220); assay: cAMP synthesis functional assay (firefly luciferase reporter in HEK293 cells), GLP-1 receptor; assay type: cell-based; settings: Table 1; relative to the native hormone of the indicated receptor
T2 construct: expressed in transfected cells; host or cells: HEK293
T2 sequence (P43220 24-463, species assumed): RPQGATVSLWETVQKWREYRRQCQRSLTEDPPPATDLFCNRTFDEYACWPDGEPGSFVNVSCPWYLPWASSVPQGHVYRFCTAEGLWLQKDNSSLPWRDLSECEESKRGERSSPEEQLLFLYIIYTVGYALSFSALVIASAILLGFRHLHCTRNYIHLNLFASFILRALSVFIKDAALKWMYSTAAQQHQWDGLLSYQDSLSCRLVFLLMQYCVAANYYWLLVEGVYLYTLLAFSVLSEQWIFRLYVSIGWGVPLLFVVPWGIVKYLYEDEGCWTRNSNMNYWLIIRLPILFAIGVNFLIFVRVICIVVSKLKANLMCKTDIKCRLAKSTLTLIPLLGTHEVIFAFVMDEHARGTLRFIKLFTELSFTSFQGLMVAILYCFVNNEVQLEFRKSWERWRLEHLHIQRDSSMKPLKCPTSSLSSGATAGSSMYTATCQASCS

T1 sequence (P47871 26-477): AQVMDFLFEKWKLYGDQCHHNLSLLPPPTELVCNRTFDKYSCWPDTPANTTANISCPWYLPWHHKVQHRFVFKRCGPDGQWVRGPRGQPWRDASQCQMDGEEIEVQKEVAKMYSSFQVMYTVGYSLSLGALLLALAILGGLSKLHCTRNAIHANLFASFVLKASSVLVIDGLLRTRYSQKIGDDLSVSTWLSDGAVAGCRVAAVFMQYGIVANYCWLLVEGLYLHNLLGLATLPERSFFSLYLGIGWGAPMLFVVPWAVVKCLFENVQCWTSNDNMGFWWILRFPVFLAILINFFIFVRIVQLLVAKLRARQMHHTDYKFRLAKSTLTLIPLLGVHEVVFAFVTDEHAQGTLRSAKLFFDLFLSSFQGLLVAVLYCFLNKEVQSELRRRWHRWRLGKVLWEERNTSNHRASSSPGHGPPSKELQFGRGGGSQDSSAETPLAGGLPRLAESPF

Row | Compound | GLP-1 Receptor relative activity (GLP-1 receptor) [%] | further results
1 | CNC(=O)CC[C@H](NC(=O)[C@H](CO)NC(=O)[C@@H](N)Cc1c[nH]cn1)C(=O)NCC(=O)N[C@H](C(=O)N[C@@H](Cc1ccccc1)C(=O)N[C@H](C(=O)N[C@@H](CO)C(=O)N[C@@H](CC(=O)O)C(=O)N[C@@H](Cc1ccc(O)cc1)C(=O)N[C@@H](CO)C(=O)N[C@@H](CCCCN)C(=O)N[C@@H](Cc1ccc(O)cc1)C(=O)N[C@@H](CC(C)C)C(=O)N[C@@H](CC(=O)O)C(=O)NC(C)(C)C(=O)N[C@@H](CCCNC(=N)N)C(=O)N[C@@H](CCCNC(=N)N)C(=O)N[C@@H](C)C(=O)N[C@@H](C)C(=O)N[C@@H](CC(=O)O)C(=O)N[C@@H](Cc1ccccc1)C(=O)N[C@H](C(=O)N[C@@H](C)C(=O)N[C@@H](Cc1c[nH]c2ccccc12)C(=O)N[C@@H](CC(C)C)C(=O)N[C@@H](CCSC)C(=O)N[C@@H](CC(=O)O)C(=O)N[C@@H](CCC(=O)O)C(=O)O)C(C)C)[C@@H](C)O)[C@@H](C)O [SEQ ID NO: 251] |  | % activity* (glucagon receptor; Table 6): 55%
2 | CC(=O)NCC[C@H](NC(=O)[C@H](CO)NC(=O)[C@@H](N)Cc1c[nH]cn1)C(=O)NCC(=O)N[C@H](C(=O)N[C@@H](Cc1ccccc1)C(=O)N[C@H](C(=O)N[C@@H](CO)C(=O)N[C@@H](CC(=O)O)C(=O)N[C@@H](Cc1ccc(O)cc1)C(=O)N[C@@H](CO)C(=O)N[C@@H](CCCCN)C(=O)N[C@@H](Cc1ccc(O)cc1)C(=O)N[C@@H](CC(C)C)C(=O)N[C@@H](CC(=O)O)C(=O)NC(C)(C)C(=O)N[C@@H](CCCNC(=N)N)C(=O)N[C@@H](CCCNC(=N)N)C(=O)N[C@@H](C)C(=O)N[C@@H](C)C(=O)N[C@@H](CC(=O)O)C(=O)N[C@@H](Cc1ccccc1)C(=O)N[C@H](C(=O)N[C@@H](C)C(=O)N[C@@H](Cc1c[nH]c2ccccc12)C(=O)N[C@@H](CC(C)C)C(=O)N[C@@H](CC(C)C)C(=O)N[C@@H](CC(=O)O)C(=O)N[C@H](C(=O)NCC(=O)N1CCC[C@H]1C(=O)N[C@@H](CO)C(=O)N[C@@H](CO)C(=O)NCC(=O)N[C@@H](C)C(=O)N1CCC[C@H]1C(=O)N1CCC[C@H]1C(=O)N1CCC[C@H]1C(=O)N[C@@H](CO)C(N)=O)[C@@H](C)O)C(C)C)[C@@H](C)O)[C@@H](C)O [SEQ ID NO: 254] (H-HS[Dab](Ac)GTFTSDYSKYLD[Aib]RRAADFVAWLLDTGPSSGAPPPS-NH2; N-terminus assumed) |  | % activity* (glucagon receptor; Table 7): 113%
3 | CC[C@H](C)[C@H](NC(=O)[C@H](CO)NC(=O)[C@H](Cc1ccc(O)cc1)NC(=O)[C@H](CC(=O)O)NC(=O)[C@H](CO)NC(=O)[C@@H](NC(=O)[C@H](Cc1ccccc1)NC(=O)[C@@H](NC(=O)CNC(=O)[C@H](CCC(N)=O)NC(=O)C(C)(C)N)[C@@H](C)O)[C@@H](C)O)C(=O)N[C@@H](Cc1ccc(O)cc1)C(=O)N[C@@H](CC(C)C)C(=O)N[C@@H](CC(=O)O)C(=O)N[C@@H](CCC(=O)O)C(=O)N[C@@H](CCC(=O)O)C(=O)N[C@@H](C)C(=O)N[C@H](C(=O)N[C@@H](CCCNC(=N)N)C(=O)N[C@@H](CC(C)C)C(=O)N[C@@H](Cc1ccccc1)C(=O)N[C@H](C(=O)N[C@@H](CC(N)=O)C(=O)N[C@@H](Cc1c[nH]c2ccccc12)C(=O)N[C@@H](CC(C)C)C(=O)N[C@@H](CC(C)C)C(=O)N[C@@H](C)C(=O)NCC(=O)NCC(=O)N1CCC[C@H]1C(=O)N[C@@H](CO)C(=O)N[C@@H](CO)C(=O)NCC(=O)N[C@@H](C)C(=O)N1CCC[C@H]1C(=O)N1CCC[C@H]1C(=O)N1CCC[C@H]1C(=O)N[C@@H](CO)C(N)=O)C(C)C)C(C)C [mt-194] (H-[Aib]QGTFTSDYSIYLDEEAVRLFVNWLLAGGPSSGAPPPS-NH2; N-terminus assumed) | 0.63 | 
4 | FTSDYSIYLDEQAAKEFVNWLLAGGPSSGAPPPS-NH2 [mt-192] | 0.06 | 

— US9062124B2, “GIP-based mixed agonists for treatment of metabolic disorders and obesity” (priority 2008, dated 2015)
